How the values were obtained:
[1] = test system: patient and control fibroblasts; assay: 13C6-fructose incubation of fibroblasts, polyol and hexose pools; format: cell-based, human; conditions: 0.15 mM 13C6-fructose, 5.5 mM glucose
Experimental: Next, the influence of dietary fructose on the urine polyol levels in PMM2-CDG was evaluated. Fructose has become one of the major sources of energy in the western diet and has been associated with numerous disorders such as diabetes, hypertension, obesity, etc. Peripheral fasting fructose levels range between 0.01-0.07 mM and can increase by 5-fold after consumption of a fructose rich meal. […] The possibility of fructose contributing to the polyols increase seen in PMM2-CDG was therefore tested. First, a fructose tolerance test in individuals with PMM2-CDG (P5) was performed. […] Then, to investigate the contribution of fructose in intracellular polyol accumulation, patient and control fibroblasts were incubated in the presence of 5.5 mM glucose and 0.15 mM (average blood fructose concentration upon fructose rich meal)^13C6-fructose and medium containing dialyzed FBS (FIG. 2A).

PMM2-CDG patient (P5) = assay: Fructose tolerance test, urine polyols; format: in vivo, human; conditions: P5, fasting, 1 g/kg oral fructose
Experimental: Fructose tolerance test was performed in P5 according to the standard clinical protocol at fasting state with 1 g/kg oral fructose, and the first voided urine was collected.

Row | Structure (SMILES) | Fractional Contribution (FC) in total hexose pool ([1]; PMM2-CDG and controls) | hexose pool abundance ([1]; dialyzed FBS) | polyol pool abundance ([1]; dialyzed FBS) | fold increase of urine mannitol after fructose tolerance test (PMM2-CDG patient (P5)) | fold increase of urine sorbitol after fructose tolerance test (PMM2-CDG patient (P5))
1 | OCC1(O)OC[C@@H](O)[C@@H](O)[C@@H]1O (some centres unmarked) [^13C6-fructose] | 4% | increase | increase | – | –
2 | O=C(CO)[C@@H](O)[C@H](O)[C@H](O)CO [fructose] | – | – | – | 3 times | approximately 7 times
